Measurements published in US4563527A, “Amidine compounds” (Torii & Co., Ltd., priority 1984, dated 1986).
pIC50: −log10 of the molar value.

Legend:
[1] = Median lethal dose (LD50); conditions: in vivo, mouse
[2] = target: Thrombin (Homo sapiens, UniProt P00734); experiment: biochemical
[3] = system: Forssman shock; experiment: Forssman shock; type: in vivo, guinea pig; conditions: test compound 3 mg/kg before intravenous hemolysin; individual male guinea pigs; control died at 278, 318, 296 sec.
Source text: Quite different from other animals, guinea pig has on the surface of its organs a specific antigen called Forssman antigen which specifically reacts with the antibody of sheep erythrocyte. Forssman shock is based on the above principle and is a shock caused by the administration of antibody of sheep erythrocyte to a guinea pig. The Forssman shock was investigated in detail by many researches and it was definitely shown that this shock is a model case where the complement plays the principal part and that the shock is associated with a classical pathway in which the complement system is activated progressively starting from C1. Since the participation of complement in autoimmune diseases has been established, the Forssman shock can be said to be useful means for testing a drug for autoimmune diseases. A drug effective for the treatment of Forssman shock is useful as a drug of autoimmune diseases. [Anti-trypsin, anti-plasmin, anti-kallikrein and anti-thrombin activities]
The experiment was performed according to the method of I. G. Offerness et al. [Biochem. Pharmacol., 27 (14), 1873-1878 (1978)]. Male Hartlay guinea pig of about 300 g in body weight was used. Each guinea pig of the control group was administered intravenously with hemolysin (minimum dose to cause the shock) (commercial hemolysin, 5,000 U as assayed by the method of Ogata) and the time elapsed until death was observed. […]

[4] = system: complement; experiment: Inhibition of complement mediated hemolysis; type: cell-based
Experimental: The complement mediated hemolysis is widely used as a means to determine the titration of complement. The principle of this method is based on the fact that hemolysis is caused by the activation of complement, when the latter is added to a complex (immune complex) of erythrocytes and the antibody thereof. The degree of hemolysis varies in proportion to the amount of complement added. Therefore, when a known amount of complement admixed with a C1 esterase inhibitor is used, the hemolysis must be suppressed in proportion to the inhibitory activity.
The anti-C1 esterase (C1r, C1s) activity was determined according to the method of Okamura et al. [K. Okamura, M. Muramatsu and B. Fujii, Biochem. Biophys. […] The figures in Table 2 have the following meanings: […]

[5] = target: Plasmin (Homo sapiens, UniProt P00747); experiment: Anti-plasmin activity (hydrolysis of TAME); type: biochemical
Experimental: The anti-trypsin, anti-plasmin, anti-kallikrein and anti-thrombin activities were determined according to the method of Muramatsu et al. [M. Muramatus, T. Onishi, S. Makino, Y. Hayashi and S. Fujii, J. of Biochem., 58, 214 (1965)]. […] The compound No. corresponds to the compound number shown in Examples.

[6] = target: T1, C1r (Homo sapiens, UniProt P00736); experiment: biochemical; conditions: molar concentration inhibiting 50% of AAME hydrolysis; read-out: ID50 C1r (Anti-C1 activity)
T1 sequence (P00736 464-705 limits assumed): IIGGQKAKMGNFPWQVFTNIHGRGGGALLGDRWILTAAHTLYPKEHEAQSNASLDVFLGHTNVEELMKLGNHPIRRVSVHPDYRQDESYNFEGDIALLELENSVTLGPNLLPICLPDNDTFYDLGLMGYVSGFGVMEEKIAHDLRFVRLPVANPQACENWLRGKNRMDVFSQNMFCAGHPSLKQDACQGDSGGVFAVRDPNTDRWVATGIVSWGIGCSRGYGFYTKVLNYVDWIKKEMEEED
T1 sequence (P00736 18-463 partner limits assumed): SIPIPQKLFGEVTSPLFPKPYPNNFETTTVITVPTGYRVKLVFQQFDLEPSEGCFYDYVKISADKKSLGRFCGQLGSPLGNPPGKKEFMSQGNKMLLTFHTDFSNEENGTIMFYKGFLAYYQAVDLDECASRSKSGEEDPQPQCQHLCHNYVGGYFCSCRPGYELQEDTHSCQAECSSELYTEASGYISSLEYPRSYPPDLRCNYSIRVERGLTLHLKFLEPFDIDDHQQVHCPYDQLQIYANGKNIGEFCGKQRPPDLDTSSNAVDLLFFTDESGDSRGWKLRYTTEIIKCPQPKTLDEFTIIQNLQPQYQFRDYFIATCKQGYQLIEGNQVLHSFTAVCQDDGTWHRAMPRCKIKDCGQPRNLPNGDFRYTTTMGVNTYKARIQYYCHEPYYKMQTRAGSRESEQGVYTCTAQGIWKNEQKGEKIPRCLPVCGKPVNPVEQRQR

[7] = target: T2, C1s (Homo sapiens, UniProt P09871); experiment: Anti-C1s activity (hydrolysis of ATEE); type: biochemical; conditions: molar concentration inhibiting 50% of ATEE hydrolysis; read-out: ID50 C1s (Anti-C1 activity)
T2 sequence (P09871 438-688 limits assumed): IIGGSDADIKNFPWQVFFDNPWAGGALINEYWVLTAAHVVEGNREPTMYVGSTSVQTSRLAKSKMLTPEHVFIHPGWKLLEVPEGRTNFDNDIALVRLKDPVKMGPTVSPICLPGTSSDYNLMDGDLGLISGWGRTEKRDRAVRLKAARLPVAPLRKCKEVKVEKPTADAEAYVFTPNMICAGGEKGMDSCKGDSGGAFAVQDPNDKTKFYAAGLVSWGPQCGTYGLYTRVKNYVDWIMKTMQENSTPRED
T2 sequence (P09871 16-437 partner limits assumed): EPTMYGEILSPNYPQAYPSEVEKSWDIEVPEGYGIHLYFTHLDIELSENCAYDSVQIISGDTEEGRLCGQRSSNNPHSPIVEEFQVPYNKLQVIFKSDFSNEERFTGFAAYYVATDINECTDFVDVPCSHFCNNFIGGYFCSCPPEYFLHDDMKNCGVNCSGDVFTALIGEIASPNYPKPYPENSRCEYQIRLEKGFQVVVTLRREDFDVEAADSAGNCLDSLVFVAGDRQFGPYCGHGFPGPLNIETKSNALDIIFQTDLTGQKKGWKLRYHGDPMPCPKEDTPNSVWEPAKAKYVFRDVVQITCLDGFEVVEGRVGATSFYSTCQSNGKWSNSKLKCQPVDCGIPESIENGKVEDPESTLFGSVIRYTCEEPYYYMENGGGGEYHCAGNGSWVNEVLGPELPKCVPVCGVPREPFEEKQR
Experimental: The anti-C1 esterase (C1r, C1s) activity was determined according to the method of Okamura et al. [K. Okamura, M. Muramatsu and B. Fujii, Biochem. Biophys. Acta, 295, 252-257 (1973)]. The inhibition of complement mediated hemolysis was determined according to the method of Baker et al. [B. R. Baker and E. H. Erickson, J. Med. Chem. 12, 408-414 (1969)]. The figures in Table 2 have the following meanings:
C1s: Molar concentration of the test compound which inhibits 50% of the ability of C1s to hydrolyse ATEE (acetyltyrosin ethyl ester) (ID50).

[8] = target: T3, Trypsin (Bos taurus, UniProt P00760); experiment: Anti-trypsin activity (hydrolysis of TAME); type: biochemical
T3 sequence (P00760 24-246): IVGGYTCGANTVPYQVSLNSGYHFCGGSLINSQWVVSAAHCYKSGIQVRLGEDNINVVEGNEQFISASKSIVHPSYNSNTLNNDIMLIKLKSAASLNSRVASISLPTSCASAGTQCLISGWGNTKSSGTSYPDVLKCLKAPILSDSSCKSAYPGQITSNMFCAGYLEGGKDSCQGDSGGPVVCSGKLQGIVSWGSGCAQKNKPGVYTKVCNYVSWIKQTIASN
Experimental: (§1) The anti-trypsin, anti-plasmin, anti-kallikrein and anti-thrombin activities were determined according to the method of Muramatsu et al. [M. Muramatus, T. Onishi, S. Makino, Y. Hayashi and S. Fujii, J. of Biochem., 58, 214 (1965)]. The data summarized in Table 1 are expressed in terms of molar concentration (ID50) of the test compound which inhibits 50% of the activity of each enzyme to hydrolyze TAME (tosylalginine methyl ester). The compound No. corresponds to the compound number shown in Examples.

[9] = system: Kallikrein; experiment: Anti-kallikrein activity (hydrolysis of TAME); type: biochemical; conditions: molar concentration inhibiting 50% of TAME hydrolysis; read-out: ID50 kallikrein
Experimental: as §1

Plasmin, sequence (P00747 581-810 limits assumed, species assumed): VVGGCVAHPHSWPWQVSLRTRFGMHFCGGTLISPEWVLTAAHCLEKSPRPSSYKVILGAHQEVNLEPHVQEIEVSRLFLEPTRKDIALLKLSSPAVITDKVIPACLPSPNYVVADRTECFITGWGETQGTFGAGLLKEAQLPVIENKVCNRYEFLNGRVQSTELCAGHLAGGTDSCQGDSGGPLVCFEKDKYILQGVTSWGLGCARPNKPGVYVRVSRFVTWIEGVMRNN
Plasmin, sequence (P00747 97-580 partner limits assumed, species assumed): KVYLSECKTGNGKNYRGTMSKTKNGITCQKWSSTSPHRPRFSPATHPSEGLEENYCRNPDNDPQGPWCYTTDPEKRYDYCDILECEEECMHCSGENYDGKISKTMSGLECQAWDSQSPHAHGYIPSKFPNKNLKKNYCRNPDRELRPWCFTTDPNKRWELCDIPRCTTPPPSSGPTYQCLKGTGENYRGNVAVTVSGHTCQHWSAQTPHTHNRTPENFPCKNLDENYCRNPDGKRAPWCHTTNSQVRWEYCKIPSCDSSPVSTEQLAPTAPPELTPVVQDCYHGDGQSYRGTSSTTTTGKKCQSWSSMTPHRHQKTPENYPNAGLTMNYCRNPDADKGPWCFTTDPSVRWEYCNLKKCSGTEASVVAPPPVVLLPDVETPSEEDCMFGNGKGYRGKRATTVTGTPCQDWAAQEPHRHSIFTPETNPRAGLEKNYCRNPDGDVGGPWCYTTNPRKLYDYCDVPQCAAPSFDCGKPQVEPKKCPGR

Row | Structure (SMILES) | LD50 ([1]; ip, I.P.) [mg/kg] | LD50 ([1]; po, P.O.) [mg/kg] | inhibition at 10 µM ([2]; figure in parentheses, at 1×10^-5 M, TAME, read-out: percentage inhibition of thrombin) [%] | time elapsed until death (survival) in Forssman shock [3] | Inhibition of complement mediated hemolysis (%) ([4]; 1 × 10^-5) | Inhibition of complement mediated hemolysis (%) ([4]; 1 × 10^-6) | Inhibition of complement mediated hemolysis (%) ([4]; 1 × 10^-7) | inhibition at 10 µM ([5]; figure in parentheses, at 1×10^-5 M, TAME, read-out: percentage inhibition of plasmin) [%] | pIC50 [6] | pIC50 [7] | inhibition at 10 µM ([8]; figure in parentheses, at 1×10^-5 M, TAME, read-out: percentage inhibition of trypsin) [%] | pIC50 [9] | pIC50 ([2]; molar concentration inhibiting 50% of TAME hydrolysis, read-out: ID50 thrombin) | pIC50 ([5]; molar concentration inhibiting 50% of TAME hydrolysis, read-out: ID50 plasmin) | pIC50 ([8]; molar concentration inhibiting 50% of TAME hydrolysis, read-out: ID50 trypsin)
1 | N=C(N)NCc1ccc(C(=O)Oc2ccc3cc(C(=N)N)ccc3c2)o1 [Compound No. 1, 6-amidino-2-naphthyl 5-guanidinomethyl-furan-2-carboxylate] | 100 | 2000 | 22 | Survival | 100 | 99 | 75 | 15 | 5.70 | 5.52 | 35 | 5.30 | – | – | –
2 | N=C(N)c1ccc2cc(OC(=O)c3ccc(CN)s3)ccc2c1 [Compound No. 31, 6-amidino-2-naphthyl 5-aminomethyl-thiophene-2-carboxylate] | 200 | 2500 | – | Survival | 100 | 98 | 97 | – | 6.70 | 6.52 | – | 6.40 | 6.00 | 6.40 | 7.70
